Measurements: publication PMC8869242 (Biomedicines, 2022)
Like-named read-outs stand apart in the source and are kept apart here.

Experiments:
MDA-MB-231 cells [1] = test: Cell migration, wound healing (scratch) assay; format: cell-based, human; conditions: from AUC0-18h of wound confluence, n = 5; for logEC50 (migration of MDA-MB-231 cells): mean ± SEM
Procedure: The effect of compounds on cell migration was studied using wound healing assay (or scratch assay). Triple-negative breast cancer MDA-MB-231 cells were seeded in 24-well microplate at the cell density 12.5 × 10^4 cells/cm^2 (1 mL final volume) and left 24 h to attach and create a confluent monolayer. The cell monolayer was scratched with 200 µL pipette tip, producing a vertical straight wound in the middle of the well; growth medium was removed and wells were washed twice with growth medium to remove all detached cells. […] Wound closure was analyzed as a confluence of the initial cell-free area covered by migrating cells at the indicated time points measured with Gen 5 Image Analysis software. Confluence was calculated using the following formula: C(t) = [(Object Sum Area(t) − Object Sum Area(0))/(I(A) − Object Sum Area(0))] × 100, where C(t) is the percent wound confluence over time, Object Sum Area(t) is the area covered by cells at each time point, Object Sum Area(0) is the area covered by cells at time 0 h and I(A) is the total area of the 4X image.

MDA-MB-231 cells [2] = test: Cell proliferation assay (label-free live cell counting), MDA-MB-231; format: cell-based, human
Procedure: The human triple-negative breast cancer cell line MDA-MB-231 (ATCC HTB-26) (absence of estrogen and progesterone receptors, […]) and the non-cancerous breast cell line MCF-12A (ATCC CRL-10782) were purchased from ATCC (Manassas, VA, USA). MDA-MB-231 cells were cultured in DMEM-HG cell growth medium supplemented with 10% (v/v) FBS. MCF-12A cells were cultured in DMEM/F12 medium supplemented with 20 ng/mL hEGF, 100 ng/mL cholera toxin, 0.01 mg/mL bovine insulin, 500 ng/mL hydrocortisone and 5% (v/v) horse serum. Cells were cultured in monolayers in a sterile environment at 37 °C with 5% CO2 humidified atmosphere. Under these conditions, the population doubling time was 25.5 ± 0.9 h and 20.6 ± 3.1 h for MDA-MB-231 and MCF-12A cells, respectively. The cell cultures were routinely screened for mycoplasma contamination, yielding negative results.
Cells were seeded in 96-well microplates at the cell density 1.5 × 10^4 cells/cm^2 (final volume 200 µL/well) and left 24 h to attach. […] Label-free kinetic live monitoring of cell proliferation was performed using LionheartFX automated microscope (BioTek, Winooski, VT, USA) with direct image acquisition of cells in microplates at 0, 24, 48 and 72 h post-addition of the tested compounds. Acquired 4X images were processed using Gen 5 Image Analysis software (BioTek, Winooski, VT, USA) that allows for identification and counting of individual cells per image. The normalized cell growth (%) was calculated using the following formula: C(t) = [(Number of Treated Cells(t) − Number of Treated Cells(0))/(Number of Untreated Cells(t) − Number of Untreated Cells(0))] × 100, where C(t) is the percent of net cell growth over time, Number of Treated Cells(t) is the count of cells treated with drug at each time point, Number of Treated Cells(0) is the count cells treated with drug at time 0 h, Number of Untreated Cells(t) is the count of untreated (control) cells at each time point, Number of Untreated Cells(0) is the count of untreated (control) cells at time 0 h.

[3] = Tolerability in tumor-bearing mice (body weight, behavior, relative organ weight, histopathology, deaths)
MDA-MB-231 breast tumors = test: Subcutaneous in vivo breast cancer xenograft study, tumor growth; design: species or system mice; conditions: i.p. 5 consecutive days, Pd2Spm 5 mg/kg/day, cisplatin 2 mg/kg/day; for tumor growth reduction (versus the vehicle group): end of experiment (day 39 post-implantation); for average tumor volumes compared to vehicle-treated control mice: p < 0.05
Procedure: Female CBA nude (N:NIH(S)II-nu/nu) mice (6–7 weeks old, 21 animals in total) with combined immunodeficiency were purchased from i3S Animal Facility (Porto, Portugal). Animals were acclimatized at ICBAS-UP Rodent Animal House Facility (Porto, Portugal) at least one week prior to the experiments, were randomly distributed into groups of three per individually ventilated cage and were housed under controlled specific-pathogen-free (SPF) environmental conditions (temperature 22.5 ± 1.5 °C; relative humidity 50 ± 10%; 12 h light/dark cycle) with ad libitum access to water and standard pellet food (4RF21, Mucedola, Italy). Environmental enrichment included corncob bedding, paper roll tube and one large sheet of tissue paper for nesting. Animals were monitored daily for health status and welfare.

[4] = tested on: chicken embryo chorioallantoic membrane (CAM); test: In vivo CAM assay (neovascularization); conditions: for CAM early steps of angiogenesis: number of nodes, junctions and segments / CAM later steps of angiogenesis: total length, total branching length and total segment length: 2 to 8 µM
Procedure: The chicken embryo chorioallantoic membrane (CAM) assay was used to study the effect of tested drugs on neovascularization, as described elsewhere. Briefly, fertilized chicken eggs were incubated at 37.5 °C in a humidified atmosphere with agitation. After 3 days of incubation, 2.5 mL of albumen was removed to detach developing CAM from the shell. A window in the eggshell was cut off to expose the embryo, and then, the eggshell was sealed with paraffin. Incubation of fertilized eggs continued until day 9, when the windows were unsealed and four paper disks previously sterilized and pre-treated with hydrocortisone ([…] to avoid inflammatory responses) were placed in direct contact with CAM in each egg (3 PBS-soaked disks and 1 VEGF-soaked (10 ng/mL) disk), and windows were re-sealed with paraffin. […] The remaining two disks were used as negative/vehicle (treated with PBS) and positive (treated with VEGF) controls. The eggs were further incubated two more days, and at […], the disks bound to the CAM were removed, placed in PBS and imaged using a contrast-phase microscope (Motic® AE200 inverted microscope, Spectra Services, VWR International) (with a 4X magnification) coupled to a Moticam 5 digital camera. Images were analyzed using the Angiogenesis Analyzer for Fiji.

MCF-12A cells = test: Cell proliferation assay (label-free live cell counting), MCF-12A; format: cell-based, human; conditions: for logIC50 ± SEM: n = 4
[5] = MDA-MB-231, 24 h of incubation, n = 4
[6] = MDA-MB-231, 24 h of incubation, n = 4, read-out: IC50 in µM [95% CI]
[7] = MDA-MB-231, 48 h of incubation, n = 4
[8] = MDA-MB-231, 48 h of incubation, n = 4, read-out: IC50 in µM [95% CI]
[9] = MDA-MB-231, 72 h of incubation, n = 4
[10] = MDA-MB-231, 72 h of incubation, n = 4, read-out: IC50 in µM [95% CI]
[11] = Pd2Spm 5 mg/kg/day, cisplatin 2 mg/kg/day
[12] = organ weight/body weight × 100%, mean ± SEM, n = 7, cisplatin 2 mg/kg/day, Pd2Spm 5 mg/kg/day
[13] = tumor-bearing mice, i.p. 5 days, Pd2Spm 5 mg/kg/day, cisplatin 2 mg/kg/day
[14] = 48 h of incubation, n = 4, read-out: IC50 in µM [95% CI]
[15] = 72 h of incubation, n = 4, read-out: IC50 in µM [95% CI]

NCCCNCCCCNCCCN.[Cl][Pd][Cl].[Cl][Pd][Cl] [Pd2Spm, dinuclear palladium(II)-spermine chelate]
logEC50 (migration of MDA-MB-231 cells) (MDA-MB-231 cells [1]): −4.243 ± 0.113
EC50 (MDA-MB-231 cells [1]): 57.2 µM
IC50 (MDA-MB-231 cells [2]; MDA-MB-231, 24-72 h, read-out: IC50 values (range over incubation times)): 7.3 to 8.3 µM
logIC50 ± SEM (MDA-MB-231 cells [2]; [5]): −5.081 ± 0.024
IC50 (MDA-MB-231 cells [2]; [6]): 8.3 µM
logIC50 ± SEM (MDA-MB-231 cells [2]; [7]): −5.105 ± 0.022
IC50 (MDA-MB-231 cells [2]; [8]): 7.9 µM
logIC50 ± SEM (MDA-MB-231 cells [2]; [9]): −5.137 ± 0.021
IC50 (MDA-MB-231 cells [2]; [10]): 7.3 µM
liver histopathology (glycogen accumulation, PAS) [3, 11]: not observed
deaths during treatment ([3]; cumulative dose of 25 mg/kg (5 mg/kg/day for 5 consecutive days)): no associated deaths
Relative Organ Weight (%), Brain [3, 12]: 1.79 ± 0.16%
Relative Organ Weight (%), Heart [3, 12]: 0.53 ± 0.06%
Relative Organ Weight (%), Kidneys [3, 12]: 1.43 ± 0.10%
Relative Organ Weight (%), Liver [3, 12]: 6.14 ± 0.29%
Relative Organ Weight (%), Lungs [3, 12]: 0.77 ± 0.08%
Relative Organ Weight (%), Spleen [3, 12]: 0.32 ± 0.11%
body weight [3, 13]: did not show changes in body weight
signs of general toxicity [3, 13]: no such adverse effects were observed
tumor growth reduction (versus the vehicle group) (MDA-MB-231 breast tumors): 43.3%
average tumor volumes compared to vehicle-treated control mice (MDA-MB-231 breast tumors): significantly lower
angiogenesis in CAM at single concentration ([4]; 8 µM (4.46 µg/mL)): significantly inhibited angiogenesis
CAM early steps of angiogenesis: number of nodes, junctions and segments [4]: decrease, in a dose-dependent manner
CAM later steps of angiogenesis: total length, total branching length and total segment length [4]: reduced, in a dose-dependent manner
growth inhibition at the highest concentration (MCF-12A cells; 100 µM, compared to same dosage of cisplatin): did not produce a maximum growth inhibition
IC50 (MCF-12A cells; 24-72 h, read-out: IC50 values (range over incubation times)): 89.5 to 229 µM
logIC50 ± SEM (MCF-12A cells; 48 h of incubation): −4.039 ± 0.023
IC50 (MCF-12A cells; [14]): 91.5 µM
logIC50 ± SEM (MCF-12A cells; 72 h of incubation): −4.048 ± 0.068
IC50 (MCF-12A cells; [15]): 89.5 µM

N.N.[Cl][Pt][Cl] [Cisplatin, cis-dichlorodiammine platinum(II), reference compound]
logEC50 (migration of MDA-MB-231 cells) (MDA-MB-231 cells [1]): −4.329 ± 0.130
EC50 (MDA-MB-231 cells [1]): 46.9 µM
logIC50 ± SEM (MDA-MB-231 cells [2]; [5]): −5.459 ± 0.036
IC50 (MDA-MB-231 cells [2]; [6]): 3.5 µM
logIC50 ± SEM (MDA-MB-231 cells [2]; [7]): −6.005 ± 0.027
IC50 (MDA-MB-231 cells [2]; [8]): 1 µM
logIC50 ± SEM (MDA-MB-231 cells [2]; [9]): −6.043 ± 0.020
IC50 (MDA-MB-231 cells [2]; [10]): 0.9 µM
liver histopathology (glycogen accumulation, PAS) [3, 11]: swollen, pale and finely vacuolated cytoplasm due to intracellular accumulation of glycogen
kidney histopathology (perirenal adipose tissue) ([3]; compared to vehicle-treated animals): decreased perirenal adipose tissue
body weight [3, 13]: slower body weight recovery
tumor growth reduction (versus the vehicle group) (MDA-MB-231 breast tumors): 56.6%
average tumor volumes compared to vehicle-treated control mice (MDA-MB-231 breast tumors): significantly lower
CAM early steps of angiogenesis: number of nodes, junctions and segments [4]: decrease, in a dose-dependent manner
CAM later steps of angiogenesis: total length, total branching length and total segment length [4]: reduced, in a dose-dependent manner
logIC50 ± SEM (MCF-12A cells; 24 h of incubation): −5.510 ± 0.062
IC50 (MCF-12A cells; 24 h of incubation, n = 4, read-out: IC50 in µM [95% CI]): 3.1 µM
logIC50 ± SEM (MCF-12A cells; 48 h of incubation): −5.988 ± 0.029
IC50 (MCF-12A cells; [14]): 1 µM
logIC50 ± SEM (MCF-12A cells; 72 h of incubation): −5.981 ± 0.026
IC50 (MCF-12A cells; [15]): 1 µM
